Source: patent US7678809B2 (priority 1999, dated 2010)

Experiments:
Type in all cases: biochemical
Mu opioid receptor = Mu opioid receptor (Homo sapiens, UniProt P35372); details: read-out: calc Ki (nM) μ
[1] = biological target: T1, human opioid receptor-like receptor (ORL-1) (Homo sapiens, UniProt P41146); details: read-out: Nociceptin Affinity calc Ki
T1 construct: host or cells: HEK-293

kappa opioid receptor = kappa opioid receptor (Homo sapiens, UniProt P41145); details: read-out: calc Ki (nM) k
delta opioid receptor = delta opioid receptor (Homo sapiens, UniProt P41143); details: read-out: calc Ki (nM) δ2
Chain of delta opioid receptor (P41143 whole entry): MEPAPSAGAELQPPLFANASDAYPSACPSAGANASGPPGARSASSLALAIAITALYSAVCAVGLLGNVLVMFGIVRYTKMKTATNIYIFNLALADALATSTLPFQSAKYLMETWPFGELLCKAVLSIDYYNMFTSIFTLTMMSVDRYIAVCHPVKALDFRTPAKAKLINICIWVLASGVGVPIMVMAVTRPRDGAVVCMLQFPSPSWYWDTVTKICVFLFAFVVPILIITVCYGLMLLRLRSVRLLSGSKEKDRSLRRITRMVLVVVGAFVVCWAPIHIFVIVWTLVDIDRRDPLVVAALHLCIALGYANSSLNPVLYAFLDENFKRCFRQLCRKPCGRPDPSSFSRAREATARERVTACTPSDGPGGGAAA

T1 sequence (P41146 whole entry): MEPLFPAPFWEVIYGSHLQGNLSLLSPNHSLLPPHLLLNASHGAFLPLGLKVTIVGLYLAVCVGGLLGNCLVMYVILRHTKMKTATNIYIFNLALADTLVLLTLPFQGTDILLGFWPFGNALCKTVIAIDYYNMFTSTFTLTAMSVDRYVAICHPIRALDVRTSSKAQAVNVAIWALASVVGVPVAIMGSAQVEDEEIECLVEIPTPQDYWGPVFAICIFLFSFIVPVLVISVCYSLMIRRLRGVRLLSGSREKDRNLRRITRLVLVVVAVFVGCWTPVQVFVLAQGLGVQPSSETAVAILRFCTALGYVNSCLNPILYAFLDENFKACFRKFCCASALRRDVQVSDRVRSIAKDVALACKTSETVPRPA
Chain of Mu opioid receptor (P35372 whole entry): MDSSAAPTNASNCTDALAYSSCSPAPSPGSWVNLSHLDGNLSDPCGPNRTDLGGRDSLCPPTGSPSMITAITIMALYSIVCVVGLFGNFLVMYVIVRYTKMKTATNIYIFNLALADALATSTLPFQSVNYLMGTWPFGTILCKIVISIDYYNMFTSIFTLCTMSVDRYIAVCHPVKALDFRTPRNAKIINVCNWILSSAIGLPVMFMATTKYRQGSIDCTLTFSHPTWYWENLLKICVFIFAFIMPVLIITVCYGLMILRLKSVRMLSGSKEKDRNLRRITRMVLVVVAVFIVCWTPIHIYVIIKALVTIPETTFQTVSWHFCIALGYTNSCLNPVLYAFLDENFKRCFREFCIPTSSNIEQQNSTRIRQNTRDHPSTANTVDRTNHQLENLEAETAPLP
Chain of kappa opioid receptor (P41145 whole entry): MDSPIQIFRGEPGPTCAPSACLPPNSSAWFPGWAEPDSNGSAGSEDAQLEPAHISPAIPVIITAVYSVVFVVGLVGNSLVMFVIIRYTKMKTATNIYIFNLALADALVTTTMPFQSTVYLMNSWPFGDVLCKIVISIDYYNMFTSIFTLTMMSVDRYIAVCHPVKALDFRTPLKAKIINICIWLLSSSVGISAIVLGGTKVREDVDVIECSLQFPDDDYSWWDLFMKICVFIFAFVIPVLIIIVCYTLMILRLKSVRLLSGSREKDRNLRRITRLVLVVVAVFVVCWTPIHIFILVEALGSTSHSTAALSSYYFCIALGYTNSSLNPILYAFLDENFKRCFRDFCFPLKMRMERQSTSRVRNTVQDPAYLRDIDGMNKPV

Compound | Ki (Mu opioid receptor) | Ki [1] | Ki (kappa opioid receptor) | Ki (delta opioid receptor)
1-[4-(4-propylcyclohexane)-4-piperidinyl]-3-[1-oxo-ethyl]-1,3-dihydro-2H-1,3-benzamidazol-2-one | 23.2 nM | 464 nM | 1600 nM | > 10000 nM
1-[4-(4-propyl-1,2-cyclohexene)-4-piperidinyl]-1,3-dihydro-2H-1,3-benzamidazol-2-one | 265 nM | 469 nM | 1500 nM | 1220 nM
O=c1[nH]c2ccccc2n1C1CCN(CCCC(c2ccc(F)cc2)c2ccc(F)cc2)CC1 [1-[4-(4,4-difluorophenylbutyl)-4-piperidinyl]-1,3-dihydro-2H-1,3-benzamidazol-2-one] | – | 420 nM | – | –
